Laboratory results taken from patent publication US20250313563A1, “GLYCOGEN SYNTHASE KINASE 3 INHIBITORS AND USES THEREOF” (The Broad Institute, Inc., priority 2022, published 2025).
Read-outs that look alike come from different tables or passages of the source.

Columns and labels:
[1] = target: GSK3b (GST-full length GSK3b) (Homo sapiens (Human), UniProt P49841); assay: GSK3b TR-FRET kinase assay; assay type: biochemical
In short: (§1)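 Full-length GST-tagged human enzyme (1 nM) is exposed to test compound for 30 min before substrates are added. Phosphorylation of a primed biotinylated glycogen synthase peptide proceeds 100 min at room temperature at low ATP (4 μM α; 2 μM β) or high ATP (1 mM). Product is quantified by TR-FRET.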

[2] = target: GSK3α (GST-full length GSK3α) (Homo sapiens (Human), UniProt P49840); assay: GSK3α TR-FRET kinase assay; assay type: biochemical
In short: as §1

[3] = 1 nM GSK3b, 2 μM ATP, 30 minute preincubation, geometric mean, read-out: GSK3-B TR-FRET BIOCHEMICAL (TR-FRET), GMean, IC50
[4] = 1 nM GSK3α, 4 μM ATP, 30 minute preincubation, geometric mean, read-out: GSK3-A TR-FRET BIOCHEMICAL (TR-FRET), GMean, IC50
[5] = 1 nM GSK3b, 2 μM ATP, 30 minute preincubation, Table 16, read-out: GSK3-B TR-FRET BIOCHEMICAL (TR-FRET), IC50
[6] = 1 nM GSK3α, 4 μM ATP, 30 minute preincubation, Table 16, read-out: GSK3-A TR-FRET BIOCHEMICAL (TR-FRET), IC50
[7] = read-out: GSK3-B (TR-FRET 1 mM ATP), GMean, IC50, 1 mM ATP, geometric mean
[8] = read-out: GSK3-A (TR-FRET 1 mM ATP), GMean, IC50, 1 mM ATP, geometric mean
[9] = 1 nM GSK3b, 2 μM ATP, 30 minute preincubation, Table 16, read-out: GSK3-B TR-FRET BIOCHEMICAL (TR-FRET)
[10] = 1 nM GSK3α, 4 μM ATP, 30 minute preincubation, Table 16, read-out: GSK3-A TR-FRET BIOCHEMICAL (TR-FRET)
[11] = 1 nM GSK3b, 2 μM ATP, 30 minute preincubation, read-out: GSK3-B TR-FRET BIOCHEMICAL (TR-FRET), IC50
[12] = 1 nM GSK3α, 4 μM ATP, 30 minute preincubation, read-out: GSK3-A TR-FRET BIOCHEMICAL (TR-FRET), IC50
[13] = GSK3-B (TR-FRET 1 mM ATP), GMean, IC50, 1 mM ATP, geometric mean
[14] = GSK3-A (TR-FRET 1 mM ATP), GMean, IC50, 1 mM ATP, geometric mean

Chain of GSK3b (GST-full length GSK3b) (P49841 whole entry): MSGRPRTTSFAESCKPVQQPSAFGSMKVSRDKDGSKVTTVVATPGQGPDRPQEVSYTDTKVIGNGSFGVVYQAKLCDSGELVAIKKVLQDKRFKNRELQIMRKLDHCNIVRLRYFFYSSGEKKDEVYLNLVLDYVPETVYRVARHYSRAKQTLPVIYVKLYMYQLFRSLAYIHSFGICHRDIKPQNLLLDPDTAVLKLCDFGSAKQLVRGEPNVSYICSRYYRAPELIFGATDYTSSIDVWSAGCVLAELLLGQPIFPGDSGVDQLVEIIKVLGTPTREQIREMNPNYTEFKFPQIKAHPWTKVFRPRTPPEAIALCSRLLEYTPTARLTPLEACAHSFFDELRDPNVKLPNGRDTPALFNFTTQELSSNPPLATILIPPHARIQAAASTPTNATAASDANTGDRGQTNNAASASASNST
Chain of GSK3α (GST-full length GSK3α) (P49840 whole entry): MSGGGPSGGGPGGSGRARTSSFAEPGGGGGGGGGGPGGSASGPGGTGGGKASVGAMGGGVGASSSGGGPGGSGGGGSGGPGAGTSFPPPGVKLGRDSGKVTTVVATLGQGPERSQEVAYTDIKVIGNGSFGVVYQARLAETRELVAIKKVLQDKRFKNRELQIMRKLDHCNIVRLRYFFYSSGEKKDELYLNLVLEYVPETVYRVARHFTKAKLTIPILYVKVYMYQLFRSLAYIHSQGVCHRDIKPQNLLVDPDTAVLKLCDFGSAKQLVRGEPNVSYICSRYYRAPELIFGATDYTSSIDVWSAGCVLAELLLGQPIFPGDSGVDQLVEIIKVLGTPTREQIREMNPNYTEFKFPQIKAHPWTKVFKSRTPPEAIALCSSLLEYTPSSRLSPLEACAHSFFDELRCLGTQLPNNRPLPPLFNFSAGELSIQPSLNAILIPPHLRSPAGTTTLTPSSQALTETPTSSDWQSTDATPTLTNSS

Row | SMILES | IC50 [1, 3] [nM] | IC50 [2, 4] [nM] | IC50 [1, 5] [nM] | IC50 [2, 6] [nM] | other results
1 | CCC1(c2cccc(-c3ccncc3F)c2)C2=C(CC(C)(C)NC2=O)Nc2n[nH]cc21 (stereo not drawn) [Compound 947874] | 1000 to 5000 | 100 to 1000 | – | – | –
2 | CC[C@]1(c2cccc(-c3ccncc3C)c2)C2=C(CC(C)(C)NC2=O)Nc2n[nH]c(C)c21 [Compound 947409] | > 5000 | 1000 to 5000 | – | – | –
3 | CCC1(c2cccc(S(C)(=O)=O)c2)C2=C(CC(C)(C)CC2=O)Nc2n[nH]cc21 (stereo not drawn) [Compound 826718] | – | – | – | – | IC50 [1, 7]: 100 to 1000 nM; IC50 [2, 8]: ≤ 100 nM
4 | CCC1(c2cccc(OC)c2)C2=C(CC(C)CC2=O)Nc2n[nH]cc21 (stereo not drawn) [Compound 811559] | 100 to 1000 | ≤ 100 | – | – | –
5 | CC[C@]1(c2cccc(-c3cn(C)nc3C)c2)C2=C(CC(C)(C)NC2=O)Nc2n[nH]c(Cl)c21 [Compound 949329] | – | – | > 5000 | 1000 to 5000 | –
6 | CC[C@]1(c2cccc(-c3ccncc3OC)c2)C2=C(CC(C)(C)CC2=O)Nc2n[nH]cc21 [Compound 945471] | – | – | – | – | IC50 [1, 9]: 1000 to 5000 nM; IC50 [1, 7]: > 5000 nM; IC50 [2, 10]: 1000 to 5000 nM; IC50 [2, 8]: > 5000 nM
7 | CC1(C)CC(=O)C2=C(Nc3n[nH]cc3C23CCOCC3)[C@@H]1F [Compound 883834] | – | – | – | – | IC50 [1, 9]: 1000 to 5000 nM; IC50 [2, 10]: 100 to 1000 nM
8 | CC[C@@]1(c2cccc(-c3cc(C)ncc3F)c2)C2=C(CC(C)(C)NC2=O)Nc2n[nH]c(C(F)(F)F)c21 [Compound 949650] | – | – | ≤ 100 | ≤ 100 | IC50 [1, 7]: 1000 to 5000 nM; IC50 [2, 8]: 100 to 1000 nM
9 | CCC1(c2cccc(Oc3ncccn3)c2)C2=C(CC(C)(C)CC2=O)Nc2n[nH]c(C(F)(F)F)c21 (stereo not drawn) [Compound 951604] | – | – | 100 to 1000 | ≤ 100 | –
10 | CCc1cc(N(C)c2cccc(C3(CC)C4=C(CC(C)(C)CC4=O)Nc4n[nH]cc43)c2)ccn1 (stereo not drawn) [Compound 917147] | – | – | 100 to 1000 | ≤ 100 | –
11 | CC1(C)CC(=O)C2=C(C1)Nc1n[nH]cc1C21COC2(CN(C(=O)c3cccc(F)c3)C2)C1 (stereo not drawn) [Compound 947283] | – | – | – | – | IC50 [1, 11]: ≤ 100 nM; IC50 [2, 12]: ≤ 100 nM
12 | COc1cccc(S(=O)(=O)N2CCC3(CC2)C2=C(CC(C)(C)CC2=O)Nc2n[nH]cc23)c1F [Compound 945656] | – | – | – | – | IC50 [1, 9]: ≤ 100 nM; IC50 [1, 13]: 100 to 1000 nM; IC50 [2, 10]: ≤ 100 nM; IC50 [2, 14]: ≤ 100 nM
13 | CCC1(c2cccc(Oc3ncccn3)c2)C2=C(CC(C)(C)CC2=O)Nc2n[nH]cc21 (stereo not drawn) [Compound 947808] | – | – | – | – | IC50 [1, 9]: ≤ 100 nM; IC50 [1, 7]: 100 to 1000 nM; IC50 [2, 10]: ≤ 100 nM; IC50 [2, 8]: ≤ 100 nM
14 | CC[C@@]1(c2cccc(-c3ccncc3)c2)C2=C(CC(C)(C)CC2=O)Nc2n[nH]cc21 [Compound 801412] | > 5000 | > 5000 | – | – | –
15 | CC[C@]1(c2ccccc2)C2=C(C[C@](C)(C(F)(F)F)CC2=O)Nc2n[nH]cc21 [Compound 819569] | 1000 to 5000 | 100 to 1000 | – | – | –
16 | CC(C)(C)Cc1[nH]nc2c1C1(CCc3c(F)cccc31)C1=C(CC(C)(C)CC1=O)N2 (stereo not drawn) [Compound 791256] | 1000 to 5000 | > 1700 | – | – | –
17 | CCC1(c2cccc(-c3ccnc(C)c3F)c2)C2=C(CC(C)(C)NC2=O)Nc2n[nH]c(C)c21 (stereo not drawn) [Compound 947402] | 100 to 1000 | ≤ 100 | – | – | –

Row | SMILES | IC50 [1, 3] [nM] | IC50 [2, 4] [nM] | IC50 [1, 5] [nM] | IC50 [2, 6] [nM] | other results
18 | CC1(C)CC(=O)C2=C(C1)Nc1n[nH]cc1C21CCCC1 [Compound 790666] | – | – | – | – | IC50 [1, 9]: ≤ 100 nM; IC50 [2, 10]: ≤ 100 nM
19 | CCC1(c2cccc(N(c3cccnc3)C3CC3)c2)C2=C(CC(C)(C)CC2=O)Nc2n[nH]cc21 (stereo not drawn) [Compound 913274] | – | – | ≤ 100 | ≤ 100 | –
20 | CC[C@@]1(c2cccc(-c3ccnc(C)c3)c2)C2=C(CC(C)(C)NC2=O)Nc2n[nH]c(F)c21 [Compound 949012] | 100 to 1000 | ≤ 100 | – | – | –
21 | CC[C@@]1(c2cccc(-c3c(C)cncc3C)c2)C2=C(CC(C)(C)NC2=O)Nc2n[nH]cc21 [Compound 948829] | > 5000 | > 5000 | – | – | –
22 | CC[C@]1(c2ccccc2)C2=C(C[C@H](C)CC2=O)Nc2n[nH]cc21 [Compound 789011] | > 5000 | > 5000 | – | – | –
23 | CC1(C)CC(=O)C2=C(C1)Nc1n[nH]cc1C21CN(S(=O)(=O)C2CCCCC2)C1 [Compound 918275] | – | – | – | – | IC50 [1, 9]: ≤ 100 nM; IC50 [2, 10]: ≤ 100 nM
24 | CC1(C)CC(=O)C2=C(C1)Nc1n[nH]cc1C21CCN(S(=O)(=O)c2cnn3c2CCCC3)CC1 [Compound 947474] | – | – | – | – | IC50 [1, 9]: ≤ 100 nM; IC50 [2, 10]: ≤ 100 nM
25 | CCC1(c2cccc(-c3ccncc3C)c2)C2=C(CC3(CCOC3)NC2=O)Nc2n[nH]cc21 (stereo not drawn) [Compound 948648] | > 5000 | > 5000 | – | – | –
26 | CC[C@@]1(c2cccc(-c3ccnc(C)c3F)c2)C2=C(CC(C)(C)CC2=O)Nc2n[nH]c(C)c21 [Compound 927340] | – | – | > 5000 | > 5000 | –
27 | CC[C@@]1(c2ccccc2)C2=C(Nc3n[nH]cc31)[C@@H](F)C(C)(C)CC2=O [Compound 957196] | – | – | – | – | IC50 [1, 9]: > 5000 nM; IC50 [2, 10]: > 5000 nM
28 | CC[C@]1(c2cccc(C(F)(F)F)c2)C2=C(Nc3n[nH]cc31)c1ccccc1C2=O [Compound 949743] | – | – | ≤ 100 | ≤ 100 | IC50 [1, 13]: 100 to 1000 nM; IC50 [2, 14]: ≤ 100 nM
29 | CC1(C)CC(=O)C2=C(C1)Nc1n[nH]cc1[C@]21COC2(CN(C(=O)C3(F)CCC3)C2)C1 [Compound 947735] | – | – | – | – | IC50 [1, 11]: ≤ 100 nM; IC50 [2, 12]: ≤ 100 nM
30 | CC1(C)CC(=O)C2=C(Nc3n[nH]cc3C23CCN(S(=O)(=O)c2ccccc2C(F)F)CC3)[C@@H]1F [Compound 951846] | – | – | – | – | IC50 [1, 9]: 100 to 1000 nM; IC50 [2, 10]: ≤ 100 nM
31 | CCC1(c2cccc(C(F)(F)F)c2)C2=C(CC(C)(C)CC2=O)Nc2n[nH]c(Br)c21 (stereo not drawn) [Compound 810466] | ≤ 100 | ≤ 100 | – | – | IC50 [1, 7]: 100 to 1000 nM; IC50 [2, 8]: ≤ 100 nM
32 | CCC1(c2cccc(Oc3cncnc3)c2)C2=C(CC(C)(C)CC2=O)Nc2n[nH]cc21 (stereo not drawn) [Compound 917212] | – | – | 100 to 1000 | ≤ 100 | –
33 | CC[C@]1(c2cccc(-c3ccncc3C(F)(F)F)c2)C2=C(CC(C)(C)CC2=O)Nc2n[nH]cc21 [Compound 943913] | – | – | – | – | IC50 [1, 9]: ≤ 100 nM; IC50 [1, 7]: 100 to 1000 nM; IC50 [2, 10]: ≤ 100 nM; IC50 [2, 8]: ≤ 100 nM
34 | CCC1(c2cccc(-c3c(C)cnc4ccccc34)c2)C2=C(CC(C)(C)NC2=O)Nc2n[nH]cc21 (stereo not drawn) [Compound 949398] | – | – | 100 to 1000 | ≤ 100 | –

Further lines, with some results ahead:

Row | IC50 [1, 3] [nM] | IC50 [2, 4] [nM] | IC50 [1, 5] [nM] | IC50 [2, 6] [nM] | SMILES | other results
35 | – | – | > 5000 | 1000 to 5000 | CC(C)[C@H]1C[C@]2(CCO1)C1=C(CC(C)(C)CC1=O)Nc1n[nH]cc12 [Compound 884014] | –
36 | ≤ 100 | ≤ 100 | – | – | CCC1(c2cccc(C(F)F)c2)C2=C(CC(C)(C)CC2=O)Nc2n[nH]cc21 (stereo not drawn) [Compound 819564] | –
37 | 1000 to 5000 | 100 to 1000 | – | – | CC[C@]1(c2cccc(-c3cnn4c3CCCC4)c2)C2=C(CC(C)(C)NC2=O)Nc2n[nH]c(C)c21 [Compound 947809] | –
38 | – | – | > 5000 | > 5000 | CC1(C)CC(=O)C2=C(C1)Nc1n[nH]cc1C21CCN(c2ccncc2)CC1 [Compound 880765] | –
39 | – | – | 1000 to 5000 | 100 to 1000 | C[C@@H]1C[C@]2(CCO1)C1=C(CC(C)(C)CC1=O)Nc1n[nH]cc12 [Compound 899559] | –
40 | – | – | > 5000 | > 5000 | CC1(C)CC(=O)C2=C(C1)Nc1n[nH]cc1C21CCCNCC1 (stereo not drawn) [Compound 889571] | –
41 | – | – | > 5000 | 100 to 1000 | CCC1(c2cccc(C3CCOC(C)(C)C3)c2)C2=C(CC(C)(C)CC2=O)Nc2n[nH]cc21 (stereo not drawn) [Compound 912090] | –
